Measurements published in patent US20090311237A1, “Combination therapy using a soluble hyaluronidase and a bisphosphonate” (priority 2008, published 2009).

Experiments:
[1] = test system: Sprague Dawley rats; assay: Injection site reactions (gross ISR incidence, lesion area) after intradermal injection of zoledronic acid with or without rHuPH20; format: in vivo, rat; conditions: for AUC (accumulated ISR area over 6 days) / Peak lesion area: rat ID 0.1 mL, rHuPH20 0 U/mL
Description: A rodent model of local injection site injury caused by ZA injection was employed for the study. […] Injection into the dermis facilitates external visualization and assessment of the irritant.
(§1) Nine to ten week old female Sprague Dawley rats, having approximate body weight of 200-250 grams, were employed for the study. One day prior to injection, rats were shaved and hair on the back and flank area were removed by Nair® cream (exposure less than 1 min to depilation cream) followed by deep wash with warm tap water. On the day of dosing, all rats were injected intradermally in flank area (one or two injection spots per side), with 0.1 or 0.2 mL as indicated of zoledronic acid solution, with or without rHuPH20, at each corresponding concentration as shown in study design table. Injection site appearance was observed and quantified by blind assessment each day following the injection until the end of the study, at which time animals were sacrificed and the skin around the dosing area as well as a part of the skin that was not effected by the dosing were collected and fixed in 10% neutral buffered formalin (NBF) and further embedded in paraffin, 5 μm sections were cut for H&E stain and histopathology evaluation.
(§2) Lesion area was calculated by the following formula: W×L×¼π. Quantitative results were analyzed using one-way analysis of variance (ANOVA) method, followed by Dunnett's comparison method (Prizm 4 program). The probability values of less than 0.05 (two-tailed) were used as the critical level of significance for all tests. Groups with a sample size of two were excluded from analysis. If the sample size was 2 for the control group, there were no statistical analyses at that interval for any of the groups. Histopathologic findings were characterized by semi-quantitative analysis of necrosis and infiltration in the skin tissue. The incidences of each finding were compared with control groups by Chi-square test.
(§3) Prior to ZA intradermal injection, rats were randomized by body weight into 7 groups of 1 or 2 rats per group (Table 2). Rats were injected with either 0.1 mL or 0.2 mL of each corresponding concentration intradermally at two separate locations on each shaved flank side for a total of 4 injections for each animal. Injection sites were observed daily post-injection for four days. Pictures of injection site reaction (ISR) area were captured by digital camera and lesion area was scored for induration, erythema, or ulceration. Two perpendicular diameters (width & length) of injection site lesion were measured by microcaliper. The lesion area was defined as the area bounded by the outer edge of the erythemic zone. Upon completion of the study, the animals were euthanized and skin at the injection site and from an untreated area of the back of the rat were excised, mounted flat onto a piece of cardboard, and placed in 10% NBF.
(§4) A series of experiments were conducted in which various dosing concentrations of rHuPH20 were tested for the ability to reduce acute injection site lesions. Prior to ZA intra-dermal injection, rats were randomized by body weight into 11 groups of 2 rats per group. Rats were injected intradermally with 0.1 mL of each co-formulated solution as shown in Table 5 and observed daily with ISR development assessed as in Section B. Four days after injection, rats were sacrificed and the skin at the injection site as well as untreated skin from the back was excised, mounted flat onto a piece of cardboard, and placed in 10% NBF.
Prior to ZA intra-dermal injection, rats were randomized by body weight into 6 groups of 3 rats per group (Table 6). Rats were intradermally injected with 0.1 mL of each corresponding co-formulated solution at two separate locations, two on each shaved flank side, for a total of 4 injections for each animal. Injection sites were observed daily with ISR development assessed as in Section B for 6 days. […]

[2] = test system: Sprague Dawley rats; assay: Semi-quantitative histopathology of skin at injection site after ID zoledronic acid with or without rHuPH20; format: in vivo; design: key to Necrosis: Mid-dermis / Infiltration: Focal / Infiltration: Muscular / Necrosis: Epidermis / Infiltration: Skin Diffuse / Infiltration: Muscle: —: Dash indicates no incidence of indicated finding; key to Infiltration: Skin Focal: —: Dash indicates no incidence of the indicated observation; conditions: rat ID, 4 days
Description: as §1, §2, §3
as §4, with “NBF. […]” for “NBF.”

[3] = rats; single IV administration of 1.6 mg/kg; cited from earlier work

O=P(O)(O)C(O)(Cn1ccnc1)P(=O)(O)O [ZA, 1-hydroxy-2-(1H-imidazol-1-yl)ethylidene-1,1-bisphosphonic acid]
AUC (accumulated ISR area over 6 days) ([1]; ZA 0.05 mg/mL): 110.8 ± 5.6 mm^2 · day
Peak lesion area ([1]; ZA 0.05 mg/mL): 28.8 ± 1.8 mm^2
AUC (accumulated ISR area over 6 days) ([1]; ZA 0.1 mg/mL): 108.3 ± 6.9 mm^2 · day
Peak lesion area ([1]; ZA 0.1 mg/mL): 32.3 ± 2.7 mm^2
AUC (accumulated ISR area over 6 days) ([1]; ZA 0.4 mg/mL): 226.5 ± 9.1 mm^2 · day
Peak lesion area ([1]; ZA 0.4 mg/mL): 62.9 ± 5.1 mm^2
erythema area ([1]; rat ID, ZA alone 0.05-0.2 mg/ml): ~35 mm^2
Infiltration: Muscle ([2]; ZA 0.05 mg/mL, rHuPH20 0 U/ml): —
Infiltration: Skin Diffuse ([2]; ZA 0.05 mg/mL, rHuPH20 0 U/ml): —
Necrosis: Epidermis ([2]; ZA 0.05 mg/mL, rHuPH20 0 U/ml): —
Infiltration: Skin Focal ([2]; ZA 0.4 mg/mL, rHuPH20 0 U/ml): —
Infiltration: Muscular ([2]; ZA alone 0.05 mg/mL): —
Necrosis: Mid-dermis ([2]; ZA alone 0.05 mg/mL): —
Infiltration: Focal ([2]; ZA alone 0.1 mg/mL): —
Necrosis: Mid-dermis ([2]; ZA alone 0.1 mg/mL): —
Infiltration: Focal ([2]; ZA alone 0.2 mg/mL): —
Necrosis: Mid-dermis ([2]; ZA alone 0.2 mg/mL): —
Infiltration: Focal ([2]; ZA alone 0.4 mg/mL): —
Infiltration: Focal ([2]; ZA alone 0.6 mg/mL): —
Infiltration: Focal ([2]; ZA alone 0.8 mg/mL): —
injection site finding [3]: local irritation at the injection site
